Consider 15 molecules from ChEMBL document CHEMBL1153251, “Biaryl piperidines as potent and selective delta opioid receptor ligands” (Bioorg Med Chem Lett, 2010).

The nature of data set [1]: (§1) Clearance in human liver microsomes. It is filed as ADME, Microsome. The conditions noted are these: liver microsomes. In general terms: Liver microsomes are vesicles of endoplasmic reticulum, rich in cytochrome P450 enzymes.
In data set [2] the target is T1, Delta-type opioid receptor (Homo sapiens, UniProt P41143). In words: Antagonist activity at delta opioid receptor by GTPgammaS bunding assay. Type of data set: functional.
For the next data set, the target named is Mu-type opioid receptor (Homo sapiens, UniProt P35372). In words: Displacement of [3H]diprenorphine from human mu opioid receptor expressed in CHO cells by liquid scintillation counting. A general note: In a radioligand displacement assay an active substance lowers the binding of a labelled ligand.
Data set [3] deals with T1, Delta-type opioid receptor. In words: Displacement of [3H]diprenorphine from human delta opioid receptor expressed in CHO cells by liquid scintillation counting.
The target in data set [4] is Kappa-type opioid receptor (Homo sapiens, UniProt P41145). In words: Displacement of [3H]diprenorphine from human kappa opioid receptor expressed in CHO cells by liquid scintillation counting.
The subject of the next data set is Liver microsomes. The data set is described as §1. Type of data set: ADME, Microsome. To be noted: microsomes.

Mu-type opioid receptor, sequence (P35372 whole entry): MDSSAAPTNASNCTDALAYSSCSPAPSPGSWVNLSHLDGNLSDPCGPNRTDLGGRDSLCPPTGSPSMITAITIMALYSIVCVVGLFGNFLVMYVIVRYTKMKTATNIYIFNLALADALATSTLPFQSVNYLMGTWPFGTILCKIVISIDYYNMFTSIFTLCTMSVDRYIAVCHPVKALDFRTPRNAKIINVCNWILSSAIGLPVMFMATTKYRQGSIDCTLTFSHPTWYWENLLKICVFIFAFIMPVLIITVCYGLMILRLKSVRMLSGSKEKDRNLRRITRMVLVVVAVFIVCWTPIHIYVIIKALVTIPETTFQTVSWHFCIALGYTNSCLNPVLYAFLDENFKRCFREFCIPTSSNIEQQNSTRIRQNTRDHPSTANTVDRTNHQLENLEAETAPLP
Kappa-type opioid receptor, sequence (P41145 whole entry): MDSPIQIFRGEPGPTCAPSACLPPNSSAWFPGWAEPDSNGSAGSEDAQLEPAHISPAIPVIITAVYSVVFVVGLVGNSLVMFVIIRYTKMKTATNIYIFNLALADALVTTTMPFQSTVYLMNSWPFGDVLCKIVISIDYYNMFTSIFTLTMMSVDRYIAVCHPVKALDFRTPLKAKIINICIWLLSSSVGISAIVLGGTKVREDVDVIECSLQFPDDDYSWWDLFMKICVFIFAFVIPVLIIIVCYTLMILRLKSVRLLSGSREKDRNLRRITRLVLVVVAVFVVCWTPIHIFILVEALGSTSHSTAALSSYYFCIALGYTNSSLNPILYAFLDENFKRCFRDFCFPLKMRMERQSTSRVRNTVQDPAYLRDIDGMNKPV
T1 sequence (P41143 whole entry): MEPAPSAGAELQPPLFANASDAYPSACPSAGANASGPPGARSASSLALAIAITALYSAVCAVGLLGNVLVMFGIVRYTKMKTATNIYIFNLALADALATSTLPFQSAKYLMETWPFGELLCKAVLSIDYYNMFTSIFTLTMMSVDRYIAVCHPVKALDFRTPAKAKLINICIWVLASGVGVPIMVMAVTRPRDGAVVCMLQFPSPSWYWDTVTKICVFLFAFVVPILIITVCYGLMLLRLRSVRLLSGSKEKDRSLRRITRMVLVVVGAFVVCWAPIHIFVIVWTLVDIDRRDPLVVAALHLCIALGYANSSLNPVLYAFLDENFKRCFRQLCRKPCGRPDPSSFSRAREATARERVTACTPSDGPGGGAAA

Usually CLint scaled stands for a measure of how fast metabolising enzymes remove a compound, apart from limits set by blood flow. Read a high CLint scaled as rapid turnover. As usually defined, the IC50 is the point on the concentration scale where inhibition reaches its midpoint. Lower therefore signals inhibition by little substance. A word on the Ki: it is the dissociation constant of the complex between target and ligand, obtained from inhibition or displacement. Read a high Ki as weaker binding. As for `CCN(CC)C(=O)c1ccc(C2(c3cccc(O)c3)CCCN(CC3CC3)C2)cc1` (stereo not drawn), the intrinsic clearance (CLint scaled) in data set [1] worked out at 89 mL/min/kg. For the same molecule, 7.1 nM corresponded to half-maximal inhibition in data set [2] (IC50). For the same molecule, the Ki stood at 35 nM at Mu-type opioid receptor, 0.8 nM in data set [3] and 24 nM in data set [4].
In data set [1], `CCCCN1CCCC(c2ccc(C(=O)N(CC)CC)cc2)(c2cccc(O)c2)C1` (stereo not drawn) gave a CLint scaled of 113 mL/min/kg. In addition, in data set [2], half-maximal inhibition (IC50) was put at 55 nM. Further, the Ki at Mu-type opioid receptor was more than 890 nM; in data set [3] it was 6.2 nM; in data set [4], more than 890 nM.
Regarding `CCN(CC)C(=O)c1ccc(C2(c3cccc(O)c3)CCN(CCc3ccccc3)CC2)cc1`, the CLint scaled in data set [1] is 239 mL/min/kg. Moreover, the inhibitory constant (Ki) came to 66.5 nM on Mu-type opioid receptor, 0.9 nM in data set [3] and 95 nM in data set [4].
Regarding `CCN(CC)C(=O)c1ccc(C2(c3cccc(O)c3)CCN(CC3CC3)CC2)cc1`, the intrinsic metabolic clearance (CLint scaled) in data set [1] is 62.9 mL/min/kg. Besides, in data set [2], inhibition was half-maximal at 155 nM (IC50). Also, the Ki is more than 890 nM at Mu-type opioid receptor, 9 nM in data set [3] and 440 nM in data set [4].
`CCCC(C)CN1CCC(c2ccc(C(O)(CC)CC)cc2)(c2cccc(C(N)=O)c2)CC1` (stereo not drawn): in data set [1], the CLint scaled was found to be 108 mL/min/kg. In data set [2], this molecule had a half-maximal inhibitory concentration (IC50) of 4.7 nM. In addition, the values for the inhibition constant Ki (on Mu-type opioid receptor; in data set [3]; in data set [4]) were 380 nM, 2 nM and 45 nM, respectively.
In data set [1], `C=CCN1CCC(c2ccc(C(=O)N(CC)CC)cc2)(c2cccc(O)c2)CC1` returned an intrinsic metabolic clearance (CLint scaled) of 34.6 mL/min/kg. Also, the Ki on Mu-type opioid receptor is more than 890 nM; in data set [3] it was 1.9 nM; in data set [4], 347 nM.
Molecule `CCCC(C)CN1CCC(c2ccc(C(=O)N(C)C)cc2)(c2cccc(O)c2)CC1` (stereo not drawn) registered a CLint scaled in data set [1] of 80 mL/min/kg. This molecule also returned an IC50 in data set [2] of 72 nM. The inhibitory constant (Ki) on Mu-type opioid receptor is more than 890 nM; in data set [3], 11 nM; in data set [4], 150 nM.
With `CCCC(C)CN1CCC(c2ccc(C(=O)N(CC)CC)cc2)(c2cccc(O)c2)CC1` (stereo not drawn), in the data set with Liver microsomes, the CL entry is on record as “Not Active”. The results for the inhibitory constant (Ki) (at Mu-type opioid receptor; in data set [3]; in data set [4]) were more than 890 nM, 1.8 nM and more than 890 nM, respectively.
On to `CCN(CC)C(=O)c1ccc(C2(c3cccc(C(N)=O)c3)CCCN(Cc3nccs3)C2)cc1` (stereo not drawn), for which the CL result in the data set with Liver microsomes is given as “Not Active”. For the same molecule, in data set [2], the midpoint of inhibition, the IC50, lay at 12 nM. For the same molecule, the Ki was more than 890 nM on Mu-type opioid receptor, 7 nM in data set [3] and more than 890 nM in data set [4].
In data set [1], `CCC(O)(CC)c1ccc(C2(c3cccc(C(N)=O)c3)CCN(CC3CC3)CC2)cc1` registered a CLint scaled of 26.1 mL/min/kg. The molecule further came in with an IC50 in data set [2] of 282 nM. In addition, the Ki on Mu-type opioid receptor is more than 890 nM; in data set [3] it was 2.3 nM; in data set [4] it was 79 nM.
For `CC(C)(O)c1ccc(C2(c3cccc(O)c3)CCCN(CC3CC3)C2)cc1` (stereo not drawn), the CLint scaled in data set [1] turned out to be 22 mL/min/kg. Moreover, the values for the inhibition constant Ki (on Mu-type opioid receptor; in data set [3]; in data set [4]) were 110 nM, 39 nM and 41 nM, respectively.
`CCN(C)C(=O)c1ccc(C2(c3cccc(O)c3)CCCN(CC3CC3)C2)cc1` (stereo not drawn): in data set [1], the intrinsic metabolic clearance (CLint scaled) came to 70 mL/min/kg. For the same molecule, the values for the inhibitory constant (Ki) (on Mu-type opioid receptor; in data set [3]; in data set [4]) were 52 nM, 2.2 nM and 66 nM, respectively.
On to `CCN(CC)C(=O)c1ccc(C2(c3cccc(O)c3)CCCN(CC(F)(F)F)C2)cc1` (stereo not drawn), for which the intrinsic metabolic clearance (CLint scaled) in data set [1] was more than 300 mL/min/kg. For the same molecule, the Ki is more than 890 nM on Mu-type opioid receptor, 2.9 nM in data set [3] and 24 nM in data set [4].
In turn, `CCN(CC)C(=O)c1ccc(C2(c3cccc(O)c3)CCCN(Cc3ncc[nH]3)C2)cc1` (stereo not drawn) yielded an intrinsic clearance (CLint scaled) in data set [1] of 230 mL/min/kg. The inhibition constant Ki was more than 890 nM on Mu-type opioid receptor, 1.2 nM in data set [3] and more than 890 nM in data set [4].
In data set [1], `CCN(CC)C(=O)c1ccc(C2(c3cccc(O)c3)CCCN(Cc3nccs3)C2)cc1` (stereo not drawn) had a CLint scaled of more than 300 mL/min/kg. The same molecule displayed an IC50 in data set [2] of 16 nM. Further, the Ki on Mu-type opioid receptor was more than 890 nM; in data set [3], 3.5 nM; in data set [4], 163 nM.
